We go through 2 molecules from patent publication US20250008959A1, “HERBICIDES AND USE THEREOF” (Projini Agchem LTD, priority 2021, published 2025).

pIC50, pKd: −log10 of the molar value. Read-outs that look alike come from different tables or passages of the source.

Test [1] concerns the target T1, AtOASS (O-acetyl serine sulfhydrylase from Arabidopsis thaliana) (Arabidopsis thaliana, UniProt P47998).
T1 construct: GST (N, cleaved yes); made in house; host or cells: E. coli Rosetta (DE3)
The test is described as follows: Isothermal titration calorimetry (ITC) binding to OASS. To be noted: OASS titrated into compound in ITC cell; single binding model. From the text:
To evaluate the ability of the molecules to bind AtOASS (O-acetyl serine sulfhydrylase from Arabidopsis thaliana), the protein was placed in the ITC syringe and was titrated with the molecules that were placed in the ITC cell (see Examples section below). The direct dissociation binding constant (Kd) was then extracted from the binding curve using a single binding model, wherein a low Kd value corresponds to a stronger binding affinity.
To evaluate the binding of the small molecules to the enzyme OASS, the purified protein was placed in a 6-8 MWCO dialysis bag in 30 mM phosphate buffer, 30 mM NaCl, 1 mM TCEP, and 5% dimethyl sulfoxide. Sequential buffer exchange dialyses were executed for 12 hours each at 4° C. until dilution of >10,000 was achieved. Before the execution of the ITC binding experiment, the OASS was placed in the ITC syringe at a concentration of 400 μM and each of the small molecules was dissolved in the same dialysis buffer to a final concentration of 40 μM in the ITC cell. ITC experiments were conducted by titrating the OASS to the compounds in the cell. The ITC binding constant was evaluated using the build-in analysis software.
The designed de-novo herbicidal compounds were synthesized and evaluated for their in vitro and in planta activity. After dissolving the molecules to a stock of 50 mM in DMSO, binding and competition with the SAT-derived peptides were evaluated using ITC and FP. ITC measures the direct heat change occurring due to the interaction of a pair of molecules. ITC has certain advantages, such as the capability to detect a relatively broad range of binding affinities, being a label-free method, and providing a wide set of interaction parameters, such as affinity, stoichiometry, enthalpy, and entropy of binding. To evaluate the ability of the molecules to bind AtOASS, the protein was placed in the ITC syringe and was titrated with the molecules that were placed in the ITC cell. The direct dissociation binding constant (Kd) was then extracted from the binding curve using a single binding model. Two consecutive experiments were combined using the built in ITC module to enable better quantification. A low Kd value corresponds to a stronger binding affinity.
In general terms: In ITC the heat of successive injections is recorded.

For test [2], the target named is T2, OASS-SAT complex (AtOASS with SAT-derived peptide) (Arabidopsis thaliana, UniProt P47998).
T2 construct: GST (N, cleaved yes); made in house; host or cells: E. coli Rosetta (DE3)
T2 sequence (P47998 whole entry, one chain of several): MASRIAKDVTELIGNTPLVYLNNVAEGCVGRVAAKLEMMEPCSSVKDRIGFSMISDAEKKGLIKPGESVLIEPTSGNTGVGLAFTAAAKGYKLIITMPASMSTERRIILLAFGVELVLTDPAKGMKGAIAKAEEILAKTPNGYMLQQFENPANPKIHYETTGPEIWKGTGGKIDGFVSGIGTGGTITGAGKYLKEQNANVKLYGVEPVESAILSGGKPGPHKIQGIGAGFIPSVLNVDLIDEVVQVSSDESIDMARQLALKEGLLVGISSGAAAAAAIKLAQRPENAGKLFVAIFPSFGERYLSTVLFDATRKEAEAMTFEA
The test is described as follows: Fluorescence polarization (FP) competition with FITC-labeled SAT-derived peptide bound to OASS. In kind it is binding. To be noted: competition with FITC-SAT peptide 200 nM, OASS 2.2 μM; for pIC50: single site inhibition model. (In general: In fluorescence polarisation assays a small probe gives low polarisation when free and higher when bound to something large.)

For test [3], the system named is Arabidopsis thaliana. The test is described as follows: Root elongation in plates (in planta root elongation assay). In kind it is in vivo. Particulars: 168 h, A. thaliana on MS medium plates, 7 days, read-out: Root-growth inhibition %.
The test system of test [4] is Arabidopsis thaliana. The experiment in a line: L-cysteine recovery root elongation assay. In kind it is in vivo. To be noted: for pIC50: Arabidopsis thaliana, read-out: IC50 of A. thaliana growth inhibition. How it is done: For the L-cysteine recovery root elongation assay, 6-well plates were prepared in a biological hood with sterile half Murashige and Skoog mineral medium (MS; Duchefa, Haarlem, Netherlands) containing 1% sucrose (w/v), pH 5.8. A stock of 10 mM L-cysteine in DDW was prepared and diluted to a final concentration of 0.03 mM into the MS medium in the presence of 25 to 1.56 μM of PJL 109. The MS medium maintained a final concentration of 0.1% DMSO. MS medium with 0.1% DMSO and 0.03 mM L-cysteine was used as a negative control. After 7 days the plates were scanned and the root length was calculated using the imageJ software.
Arabidopsis thaliana seeds were washed with 70% ethanol for 1 minute and then with sterile water. Further sterilization was done by washing the seeds with 50% hypochlorite and 0.2% Triton x-100 for 10 minutes followed by five cycles of washing with sterile water. Six seeds were placed in each well, and the plates were covered and sealed with parafilm. Plates were placed vertically at 4° C. for two days and then transferred to a growth chamber for seven days (22-24° C.) at day/light cycles of 16/8 hours.

Test [5] relates to Solanum nigrum. The test is described as follows: Pre-emergence assay in pots. In kind it is in vivo. Particulars: pots sprayed with 2 ml, 5 mM, monitored 21 days. How it is done:
(§1) 7×7 cm pots were prepared with 20% soil and 80% sand. Trifolium alexandrium (16 seeds), Lolium rigidum (25 seeds), Solanum nigrum (25 seeds), Amaranthus palmeri (40 seeds) or Sinapis arvensis (12 seeds) were sowed and 2 cm of strained sand was used to cover the seeds. The pots were placed in the growth room under a lighting regime of 16 hours of light and 8 hours in the dark at 23° C. The day after (except for the Solanum and Amaranthus 4-5 days after), the pots were sprayed in a chemical hood at a 45° angle with 2 ml spray solution containing 1:10 acetone or phosphate buffer dissolved active ingredient in tap water to a final concentration of 5 mM. Every 2-3 days the pots were irrigated with tap water.
(§2) Pre-emergence herbicidal activity was determined by monitoring plant growth in pots. Molecules were dissolved at the indicated concentrations below and volume of 2 ml was sprayed onto the soil, and plant growth was monitored for 21 days.

Test [6] concerns Lolium rigidum. The experiment in a line: Pre-emergence assay in pots. In kind it is in vivo. To be noted: pots sprayed with 2 ml, 5 mM, monitored 21 days. How it is done: as §1, §2
The subject of test [7] is Sinapis arvensis. The experiment in a line: Pre-emergence assay in pots. In kind it is in vivo. To be noted: pots sprayed with 2 ml, 5 mM, monitored 21 days. The procedure: as §1, §2

T1 sequence (P47998 whole entry): as the sequence (P47998 whole entry, one chain of several) above

Regarding `O=C(O)c1ccccc1-c1ccccc1C(=O)Nc1nc(-c2ccc(Cl)cc2Cl)cs1` [PJL-109], the pKd in test [1] is 7.15. Besides, the FP % inhibition in test [2] was found to be 48%. Further, the pIC50 was 5.27 in test [2], 5.77 in test [4] (0 mM L-cysteine (no external addition of cysteine)) and 5.31 in test [4] (0.03 mM L-cysteine in the medium). The inhibition at 50 µM in test [3] is 89%. In addition, the “effect of added cysteine on the inhibition by the compound” value in test [4] (0.03 mM L-cysteine on agar plates, dose-response, result in words) is on record as “partially reverses the germination inhibition effect”. Also, the “Pre-emergence assay Germination inhibition on (%)” value in test [5] is given as 63%. The “Pre-emergence assay Growth inhibition on (%)” value in test [5] was 0%.
In the case of `O=C(O)c1ccccc1-c1ocnc1C(=O)Nc1nc(-c2ccc(Cl)cc2Cl)cs1` [PJL-117], in test [2], the FP % inhibition turned out to be 10% and the pIC50 is 3.61. Moreover, the inhibition at 50 µM in test [3] was 100%. In test [6], the “Pre-emergence assay Germination inhibition on (%)” value turned out to be 0% and the “Pre-emergence assay Growth inhibition on (%)” value was 60%. Besides, in test [7], the “Pre-emergence assay Germination inhibition on (%)” value is listed as 90% and the “Pre-emergence assay Growth inhibition on (%)” value is 80%.

The term pKd denotes the negative decadic logarithm of the Kd, by convention in mol/L. Lower therefore signals a large Kd. The term pIC50 denotes the IC50 on a negative log10 scale, so that one unit is a factor of ten. As a reminder, the inhibition is the percentage by which the read-out fell short of the control.
